In patent publication US7670613B2, “Androgen modulators” (Pfizer Inc., priority 2004, dated 2010):
Read-outs that look alike come from different tables or passages of the source.

Molecular target: T1, androgen receptor (Homo sapiens, UniProt P10275, Q868H)
T1 construct: a human breast tumor cell line expressing androgen receptor; endogenous in cells; host or cells: MDA-MB453-MMTV clone 54-19 (only the MMTV-luciferase reporter was transfected)
T1 sequence (P10275 1-920 Q868H): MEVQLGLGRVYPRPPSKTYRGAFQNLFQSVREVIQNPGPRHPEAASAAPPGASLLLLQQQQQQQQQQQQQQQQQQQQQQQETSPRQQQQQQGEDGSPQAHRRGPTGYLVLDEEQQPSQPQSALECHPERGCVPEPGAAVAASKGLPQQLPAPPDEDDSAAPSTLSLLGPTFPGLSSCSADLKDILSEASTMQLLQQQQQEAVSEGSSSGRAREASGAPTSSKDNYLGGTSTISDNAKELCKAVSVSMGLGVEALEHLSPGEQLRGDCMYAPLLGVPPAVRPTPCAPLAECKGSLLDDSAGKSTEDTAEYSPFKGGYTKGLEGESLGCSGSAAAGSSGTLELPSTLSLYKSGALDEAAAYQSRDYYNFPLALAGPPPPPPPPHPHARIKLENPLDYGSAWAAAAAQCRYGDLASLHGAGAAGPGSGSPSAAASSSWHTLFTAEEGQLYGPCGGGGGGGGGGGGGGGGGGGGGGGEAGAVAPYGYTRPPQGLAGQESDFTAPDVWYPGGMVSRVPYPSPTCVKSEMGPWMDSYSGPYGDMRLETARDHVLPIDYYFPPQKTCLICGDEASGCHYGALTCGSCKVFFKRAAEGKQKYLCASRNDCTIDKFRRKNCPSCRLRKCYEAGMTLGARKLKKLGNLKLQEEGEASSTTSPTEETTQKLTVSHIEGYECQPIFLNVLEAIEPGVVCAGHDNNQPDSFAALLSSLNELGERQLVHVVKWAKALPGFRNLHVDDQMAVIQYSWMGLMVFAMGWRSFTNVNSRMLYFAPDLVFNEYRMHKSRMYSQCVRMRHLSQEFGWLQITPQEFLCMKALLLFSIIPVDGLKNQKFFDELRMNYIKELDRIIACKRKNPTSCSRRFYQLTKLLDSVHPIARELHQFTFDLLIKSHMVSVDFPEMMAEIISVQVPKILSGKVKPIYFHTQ
Assay: AR antagonist cell assay (MDA-MB453-MMTV clone 54-19, luciferase reporter)
Type: cell-based
Settings: 100 pM DHT, 17 hr, mean of multiple tests
Protocol: The compounds ability to antagonize the effects of androgen on the androgen receptor were determined in a whole cell assay as described immediately below.
Experimental Procedure for AR Antagonist Cell Assay
This cell line is a stable transfected cell line with MDA-MB453 cell background (a human breast tumor cell line expressing androgen receptor). A MMTV minimal promoter containing ARE was first cloned in front of a firefly luciferase reporter gene. Then the cascade was cloned into transfection vector pUV120puro. Electroporation method was used for transfecting MDA-MB-453 cell. Puromycin resistant stable cell line was selected.
Cell Culture Media and Reagents:
Culture medium: DMEM (high glucose, Gibco cat #: 11960-044), 10% FBS, and 1% L-glutamine
Plating medium: DMEM (phenol red free), 10% charcoal treated HyClone serum, 1% L-glutamine
Assay medium: DMEM (phenol red free), 1% charcoal treated HyClone serum, 1% L-glutamine, and 1% penicillin/streptomycin
3× luciferase buffer: 2% beta-mercaptoethanol, 0.6% ATP, 0.0135% luciferine in cell lysis buffer
• 1. Cells are maintained in culture medium, splitting cells when they reach 80-90% confluence • 2. To test compounds, 10,000 cells/well are plated to opaque 96 cell culture plate in 100 ul/well plating medium, culture for overnight at 37° C. in cell culture incubator • 3. Carefully remove plating medium, then add 80 ul/well of pre-warmed assay medium, add 10 ul/well testing compound (final concentration at) 1000 nM, 200 nM, 40 nM, 8 nM, 1.6 nM, and 0.32 nM), incubate at 37° C. for 30 minutes • 4. Add 10 ul/well freshly prepared DHT (final concentration at 100 pM) to each well, incubate at 37° C. for 17 hr (overnight) • 5.
The results are reported as the mean of multiple tests as described below (the numbers of tests are indicated in the footnote). N.D. denotes that the compound was not tested.

[1] = AR Cell IC50, MDA-MB453-MMTV clone 54-19 cells

Row | SMILES | IC50 [1] | IC50 (MDA-MB453-MMTV clone 54-19 cells, read-out: AR Cell IC50)
1 | N#Cc1ccc(O[C@@H]2CCCC[C@H]2C#N)cc1C(F)(F)F (single isomer, unassigned) [Example 72, (trans)-(−)-4-(2-Cyano-cyclohexyloxy)-2-trifluoromethyl-benzonitrile] | 0.012 µM | 
2 | CC1CCCCC1Oc1ccc(C#N)c(C(F)(F)F)c1 (stereo not drawn) [Example 8, 4-(2-Methyl-cyclohexyloxy)-2-trifluoromethyl-benzonitrile] |  | 0.494 µM
3 | N#Cc1ccc(O[C@@H]2CCCCC2C#N)cc1C(F)(F)F (stereo in doubt) [Example 14, -4-(2-Cyano-cyclohexyloxy)-2-trifluoromethyl-benzonitrile] | 0.013 µM | 
